Experiments:
salmon sperm DNA [1] = test: Absorption spectrophotometry of the pyrylium compound free and mixed with salmon sperm DNA; format: binding; details: DNA 50 μg/ml, compound 3×10^−5 M, 10 mM phosphate buffer pH 7.0
Method: Compound 3 prepared in Example 1 (2-(3-carboxypropyl)-4,6-bis(4-N,N-dimethylaminophenyl)pyrylium iodide) was dissolved into a 10 mM phosphate buffer solution (pH 7.0) to prepare Solution IA. A fraction of Solution IA was diluted to a final concentration of 3×10^−5 M, and the diluted solution was subjected to absorption spectrophotometry. The absorption spectrum is denoted by (A) in FIG. 1.
(§1) A DNA solution was prepared using salmon sperm DNA (mfd. by Sigma-Aldrich Co.) which was adequately purified according to a conventional method. A fraction of the DNA solution and a fraction of Solution IA were mixed to prepare Solution IB in which the final DNA concentration was 50 μg/ml and the final concentration of Compound 3 was 3×10^−5 M. A fraction of Solution IB was subjected to absorption spectrophotometry. The absorption spectrum is denoted by (B) in FIG. 1.
(§2) With reference to spectrum (A) of Compound 3 and spectrum (B) of Solution IB in FIG. 1, the absorption bands of Solution IB are shifted to longer wavelengths by 30 nm and absorbance is decreased due to interaction between Compound 3 and the DNA. These changes can be attributed to the intercalative characteristics of Compound 3.
Compound 6 prepared in Example 3 (2-(2-carboxyethyl)-4,6-bis(4-N,N-dimethylaminophenyl)pyrylium iodide) was dissolved into a 10 mM phosphate buffer solution (pH 7.0) to prepare Solution IIA. A fraction of Solution IIA was diluted to a final concentration of 3×10^−5 M, and the diluted solution was subjected to absorption spectrophotometry. The absorption spectrum is denoted by (A) in FIG. 4.
as §1, with “DNA (Sigma-Aldrich” for “DNA (mfd. by Sigma-Aldrich”, “Solution IIA” for “Solution IA”, “Solution IIB” for “Solution IB”, “Compound 6” for “Compound 3”, “FIG. 4.” for “FIG. 1.”
as §2, with “Compound 6” for “Compound 3”, “Solution IIB” for “Solution IB”, “FIG. 4,” for “FIG. 1,”, “to” for “to the”, “Compound 6.” for “Compound 3.”

salmon sperm DNA [2] = test: Spectrofluorimetry of the pyrylium compound with and without salmon sperm DNA; format: binding; details: excitation 550 nm; for fluorescence of solution not containing DNA: no DNA; for fluorescence wavelength of solution containing DNA (fluoresces intensely): with salmon sperm DNA
Method: A fraction of Solution IA and a fraction of Solution IB were diluted so that the concentration of Compound 3 was the same in these diluted solutions. The diluted solutions were subjected to conventional spectrofluorimetry by excitation light having a wavelength of 550 nm.
A fraction of Solution IIA and a fraction of Solution IIB were diluted so that the concentration of Compound 6 was the same in these diluted solutions. The diluted solutions were subjected to conventional spectrofluorimetry by excitation light having a wavelength of 550 nm.

SMILES	change of absorbance due to interaction with DNA (salmon sperm DNA [1])	shift of absorption bands to longer wavelengths due to interaction with DNA (salmon sperm DNA [1])	fluorescence of solution not containing DNA (salmon sperm DNA [2])	fluorescence wavelength of solution containing DNA (fluoresces intensely) (salmon sperm DNA [2])
CN(C)c1ccc(-c2cc(CCC(=O)O)[o+]c(-c3ccc(N(C)C)cc3)c2)cc1.[I-] [Compound 6, 2-(2-carboxyethyl)-4,6-bis(4-N,N-dimethylaminophenyl)pyrylium iodide]	decreased	30 nm	does not fluoresce	~640 nm
CN(C)c1ccc(-c2cc(CCCC(=O)O)[o+]c(-c3ccc(N(C)C)cc3)c2)cc1.[I-] [Compound 3, 2-(3-carboxypropyl)-4,6-bis(4-N,N-dimethylaminophenyl)pyrylium iodide]	decreased	30 nm	does not fluoresce	~640 nm
